A short description of data set [1]: AUC in Wistar rat at 30 mg/kg, po administered as single dose measured up to 8 hrs post dose by LC-MS analysis. It counts as ADME, organism-based. Also noted: time < 8 hr, dose 30 mg/kg, route oral. The note with it: in vivo.
A further data set has as its system Rattus norvegicus. Description: Effect on reproductive system in Wistar Han rat at 30 to 500 mg/kg, po for 14 days. It counts as ADME, organism-based. The following applies: in vivo, 336 h.
Data set [2] can be described thus: Volume of distribution at steady state in rat. In kind it is ADME. The following applies: in vivo, read-out: Vdss.
For another data set, the target named is T1, Progesterone receptor (Homo sapiens, UniProt P06401).
T1 sequence (P06401 whole entry): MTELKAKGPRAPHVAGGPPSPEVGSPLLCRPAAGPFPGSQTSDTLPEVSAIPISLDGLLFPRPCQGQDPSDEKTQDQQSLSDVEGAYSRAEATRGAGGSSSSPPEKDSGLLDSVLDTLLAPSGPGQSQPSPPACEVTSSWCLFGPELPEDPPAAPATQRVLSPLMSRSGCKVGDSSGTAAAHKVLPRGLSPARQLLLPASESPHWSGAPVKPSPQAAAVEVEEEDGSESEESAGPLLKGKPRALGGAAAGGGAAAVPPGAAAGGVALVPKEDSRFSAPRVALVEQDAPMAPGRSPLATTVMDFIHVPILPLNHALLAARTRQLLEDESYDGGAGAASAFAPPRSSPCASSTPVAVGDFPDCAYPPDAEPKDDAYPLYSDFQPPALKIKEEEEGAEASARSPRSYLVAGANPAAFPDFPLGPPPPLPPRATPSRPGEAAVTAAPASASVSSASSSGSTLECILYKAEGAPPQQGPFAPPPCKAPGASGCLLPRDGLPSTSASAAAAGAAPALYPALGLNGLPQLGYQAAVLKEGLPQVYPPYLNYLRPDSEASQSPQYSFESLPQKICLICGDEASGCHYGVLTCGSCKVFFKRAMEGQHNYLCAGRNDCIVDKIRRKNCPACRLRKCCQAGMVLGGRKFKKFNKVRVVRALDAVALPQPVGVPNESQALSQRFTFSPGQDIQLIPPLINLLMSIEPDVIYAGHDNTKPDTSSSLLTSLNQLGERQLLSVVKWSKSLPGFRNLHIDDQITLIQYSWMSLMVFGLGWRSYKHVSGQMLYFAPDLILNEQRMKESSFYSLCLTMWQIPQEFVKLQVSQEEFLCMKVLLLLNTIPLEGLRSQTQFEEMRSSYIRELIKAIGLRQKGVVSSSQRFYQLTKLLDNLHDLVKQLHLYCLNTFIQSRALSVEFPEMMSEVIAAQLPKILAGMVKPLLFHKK
Description: Displacement of [3H]-progesterone from recombinant human His-tagged PR-b after 4 hrs by liquid scintillation counting.

Another data set has as its system MDR1 (P-gp). In words: Apparent permeability across apical to basolateral side in MDCK cells expressing human MDR1. In kind it is ADME, cell-based, Canis lupus familiaris. The note with it: dog.
The next data set deals with T2, Estrogen receptor (Homo sapiens, UniProt P03372).
T2 sequence (P03372 whole entry): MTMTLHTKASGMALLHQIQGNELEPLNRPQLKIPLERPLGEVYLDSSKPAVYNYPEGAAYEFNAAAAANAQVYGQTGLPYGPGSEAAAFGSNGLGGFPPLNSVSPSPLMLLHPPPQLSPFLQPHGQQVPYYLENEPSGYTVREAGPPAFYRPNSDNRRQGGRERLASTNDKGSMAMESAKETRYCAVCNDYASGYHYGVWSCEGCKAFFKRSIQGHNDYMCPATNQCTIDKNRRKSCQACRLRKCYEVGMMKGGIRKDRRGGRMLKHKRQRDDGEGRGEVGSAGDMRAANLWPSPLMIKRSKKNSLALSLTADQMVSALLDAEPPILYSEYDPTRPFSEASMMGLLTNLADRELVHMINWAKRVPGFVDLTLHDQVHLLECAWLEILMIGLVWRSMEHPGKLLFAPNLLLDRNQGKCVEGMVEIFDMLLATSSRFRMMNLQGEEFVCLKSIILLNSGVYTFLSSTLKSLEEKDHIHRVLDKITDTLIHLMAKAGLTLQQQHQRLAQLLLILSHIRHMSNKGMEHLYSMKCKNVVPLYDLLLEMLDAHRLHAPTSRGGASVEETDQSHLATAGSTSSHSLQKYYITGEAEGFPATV
Description: Binding affinity to ERalpha (unknown origin).

Data set [3] concerns the target T3, Glucocorticoid receptor (Homo sapiens, UniProt P04150).
T3 sequence (P04150 whole entry): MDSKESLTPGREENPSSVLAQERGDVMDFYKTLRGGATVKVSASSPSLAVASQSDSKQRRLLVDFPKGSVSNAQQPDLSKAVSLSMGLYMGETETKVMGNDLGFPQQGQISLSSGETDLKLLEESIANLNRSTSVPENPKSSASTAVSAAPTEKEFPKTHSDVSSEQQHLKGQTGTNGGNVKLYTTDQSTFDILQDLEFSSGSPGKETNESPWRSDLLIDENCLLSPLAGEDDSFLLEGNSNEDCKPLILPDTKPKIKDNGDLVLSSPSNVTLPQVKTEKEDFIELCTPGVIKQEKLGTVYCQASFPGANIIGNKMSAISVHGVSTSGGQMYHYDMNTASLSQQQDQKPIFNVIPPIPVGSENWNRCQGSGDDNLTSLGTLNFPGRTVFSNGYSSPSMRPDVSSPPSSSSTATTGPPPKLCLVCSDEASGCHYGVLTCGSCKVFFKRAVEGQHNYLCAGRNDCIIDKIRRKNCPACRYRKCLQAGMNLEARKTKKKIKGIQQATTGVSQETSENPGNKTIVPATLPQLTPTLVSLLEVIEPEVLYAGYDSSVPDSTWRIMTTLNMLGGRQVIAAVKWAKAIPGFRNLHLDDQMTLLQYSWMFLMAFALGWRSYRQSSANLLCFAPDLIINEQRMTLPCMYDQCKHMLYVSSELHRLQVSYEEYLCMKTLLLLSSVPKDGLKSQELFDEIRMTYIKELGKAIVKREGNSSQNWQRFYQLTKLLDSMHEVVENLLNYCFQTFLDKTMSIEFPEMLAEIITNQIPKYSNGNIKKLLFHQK
In words: Displacement of [3H]-dexamethasone from recombinant human GST-tagged GR ligand binding domain after 4 hrs by liquid scintillation counting. A general note: In a radioligand displacement assay an active substance lowers the binding of a labelled ligand.

Data set [4] deals with T3, Glucocorticoid receptor. In words: Binding affinity to GR (unknown origin) expressed in human IM9 cells. In kind it is cell-based.

In data set [1], `C[C@@H]1CN(c2ccc3c(n2)NC(=O)CO3)[C@H](c2ccccc2)CO1` yielded an area under the curve (AUC) at 8 h of 2850 ng·h/mL. The Activity entry with Rattus norvegicus was “Non-Toxic”. Also, in data set [2], the Vd is 6.15 L/kg. Also, the IC50 at Progesterone receptor is > 10 µM; on Estrogen receptor, > 10 µM; on Glucocorticoid receptor [3], > 10 µM; at Glucocorticoid receptor [4], 0.597 µM. In addition, the apical-to-basolateral permeability (Papp A→B) in the data set on MDR1 (P-gp) worked out at 24.9 ×10⁻⁶ cm/s.

By AUC is commonly meant the area under the concentration-time curve, a measure of exposure. Higher therefore signals high exposure. One may read the IC50 as the point on the concentration scale where inhibition reaches its midpoint. Broadly, the Papp A→B is the apparent permeability from the apical to the basolateral side of a cell layer.
